Measurements: patent publication US10123993B2, “Cyclic ureas as inhibitors of rock” (BRISTOL-MYERS SQUIBB COMPANY, priority 2015, dated 2018)
Where a name gives a salt, the structure may show the parent alone.

tested on: spontaneously hypertensive rat, renal hypertensive rat and deoxycortisone acetate salt hypertensive rat models; assay: not given; details: control rats; cited from earlier work

Structure (SMILES)	blood pressure
C[C@@H](N)[C@H]1CC[C@H](C(=O)Nc2ccncc2)CC1 [Example Y-27632]	only a minor effect on blood pressure

same assay, conditions: three rat models of hypertension; cited from earlier work

Structure (SMILES)	blood pressure
C[C@@H](N)[C@H]1CC[C@H](C(=O)Nc2ccncc2)CC1 [Example Y-27632]	significantly decrease blood pressure

molecular target: ROCK2 (Homo sapiens, UniProt O75116); assay: ROCK2 kinase inhibition assay (Caliper LABCHIP, FITC peptide substrate); assay type: biochemical; details: 5 μM ATP, 1.5 μM peptide substrate; value ranges
In short: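 Rho kinase with 5 μM ATP and 1.5 μM FITC-AHA-AKRRRLSSLRA-OH peptide in HEPES pH 7.5, 20 mM MgCl2, 0.015% Brij-35, 4 mM DTT, DMSO <2%. EDTA stop; phospho and non-phospho peptide separated on LabChip. IC50 from dose-response fit.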

Chain of ROCK2 (O75116 whole entry, species assumed): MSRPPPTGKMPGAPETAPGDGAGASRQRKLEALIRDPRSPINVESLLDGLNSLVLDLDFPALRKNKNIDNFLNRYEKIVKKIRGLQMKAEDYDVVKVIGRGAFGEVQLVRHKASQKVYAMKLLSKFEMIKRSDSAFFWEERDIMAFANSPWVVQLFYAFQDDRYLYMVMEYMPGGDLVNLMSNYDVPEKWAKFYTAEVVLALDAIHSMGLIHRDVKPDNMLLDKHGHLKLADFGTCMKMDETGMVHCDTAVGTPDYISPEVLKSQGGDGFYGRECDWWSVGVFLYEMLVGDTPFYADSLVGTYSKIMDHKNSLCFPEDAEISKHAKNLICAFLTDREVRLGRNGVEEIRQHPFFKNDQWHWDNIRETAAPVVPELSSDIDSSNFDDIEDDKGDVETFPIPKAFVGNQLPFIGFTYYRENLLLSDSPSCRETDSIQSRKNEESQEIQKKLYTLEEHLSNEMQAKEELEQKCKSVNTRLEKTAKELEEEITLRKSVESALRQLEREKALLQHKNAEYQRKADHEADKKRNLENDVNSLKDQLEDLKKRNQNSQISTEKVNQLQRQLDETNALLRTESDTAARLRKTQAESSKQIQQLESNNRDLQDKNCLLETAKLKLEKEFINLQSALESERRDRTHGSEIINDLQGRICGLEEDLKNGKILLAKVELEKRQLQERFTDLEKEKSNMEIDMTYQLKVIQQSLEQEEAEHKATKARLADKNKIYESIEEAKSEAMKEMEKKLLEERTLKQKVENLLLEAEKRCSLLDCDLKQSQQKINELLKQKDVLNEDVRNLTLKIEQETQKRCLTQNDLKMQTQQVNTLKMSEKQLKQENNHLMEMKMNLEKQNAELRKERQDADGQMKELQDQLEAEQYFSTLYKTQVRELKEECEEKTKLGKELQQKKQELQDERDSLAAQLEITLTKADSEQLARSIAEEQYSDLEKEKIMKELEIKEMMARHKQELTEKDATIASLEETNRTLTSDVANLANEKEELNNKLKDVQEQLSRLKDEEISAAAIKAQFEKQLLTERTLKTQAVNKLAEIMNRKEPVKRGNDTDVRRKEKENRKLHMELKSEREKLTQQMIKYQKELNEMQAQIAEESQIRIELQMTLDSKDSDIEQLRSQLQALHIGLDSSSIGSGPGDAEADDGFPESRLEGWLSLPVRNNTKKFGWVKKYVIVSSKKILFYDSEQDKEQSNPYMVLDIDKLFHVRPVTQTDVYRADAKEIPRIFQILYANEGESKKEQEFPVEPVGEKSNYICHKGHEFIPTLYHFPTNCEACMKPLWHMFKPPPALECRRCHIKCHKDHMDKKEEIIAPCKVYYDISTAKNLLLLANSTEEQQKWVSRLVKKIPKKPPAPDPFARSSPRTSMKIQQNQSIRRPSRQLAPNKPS

IC50 [µM]	Structure (SMILES)
0.0021 to 0.02	COc1cccc(C(C)N2C(=O)N(c3ccc(-c4cn[nH]c4)cc3)C[C@@H]2CO)c1 (single isomer, unassigned) [Example 132]
0.0021 to 0.02	CCc1cc(N2CC(C)(C)N(Cc3cc(F)cc(OC)c3)C2=O)ccc1-c1cn[nH]c1 [Example 147, 1-(3-ethyl-4-(1H-pyrazol-4-yl)-phenyl)-3-(3-fluoro-5-methoxy-benzyl)-4,4-dimethyl-imidazolidin-2-one]
< 0.002	COc1cccc(CN2C(=O)N(c3ccc(-c4cn[nH]c4)cc3)CC2C(C)(C)O)c1 (single isomer, unassigned) [Example 124, 1-(4-(1H-Pyrazol-4-yl)phenyl)-4-(2-hydroxypropan-2-yl)-3-(3-methoxybenzyl)imidazolidin-2-one]
0.0201 to 0.2	COc1cc(N2CCN(Cc3ccccc3F)C2=O)ccc1-c1cn[nH]c1 [Example 17, 1-(2-Fluorobenzyl)-3-(3-methoxy-4-(1H-pyrazol-4-yl)phenyl)imidazolidin-2-one]
0.0201 to 0.2	O=C1CN(c2ccc(-c3cn[nH]c3)cc2)C(=O)N1CCc1ccccc1 [Example 113, 1-(4-(1H-pyrazol-4-yl)phenyl)-3-phenethyl-imidazolidine-2,4-dione]
< 0.002	COc1cc(C(C)N2CCN(c3ccc(-c4cn[nH]c4)c(OC)n3)C2=O)ccc1F (single isomer, unassigned) [Example 230, 1-(1-(4-fluoro-3-methoxyphenyl)ethyl)-3-(6-methoxy-5-(1H-pyrazol-4-yl)pyridin-2-yl)imidazolidin-2-one]
0.0021 to 0.02	COc1nc(N2CCN(Cc3cccc(F)c3F)C2=O)ccc1-c1cn[nH]c1 [Example 223, 1-(2,3-difluorobenzyl)-3-(6-methoxy-5-(1H-pyrazol-4-yl)pyridin-2-yl)imidazolidin-2-one]
0.0021 to 0.02	COc1cc(F)cc(Cn2ccn(-c3ccc(-c4cn[nH]c4)c(OC)c3)c2=O)c1 [Example 343, 1-(3-fluoro-5-methoxybenzyl)-3-(3-methoxy-4-(1H-pyrazol-4-yl)phenyl)-1H-imidazol-2(3H)-one]
< 0.002	CCc1nc(-n2ccn(Cc3cccc(OC)c3)c2=O)ccc1-c1cn[nH]c1 [Example 180, 1-(6-ethyl-5-(1H-pyrazol-4-yl)pyridin-2-yl)-3-(3-methoxy-benzyl)-1H-imidazol-2(3H)-one]
0.2 to 2	O=C1CN(Cc2cccc(F)c2)C(=O)N1c1ccc(-c2cn[nH]c2)cc1 [Example 81, 3-(4-(1H-pyrazol-4-yl)phenyl)-1-(3-fluorobenzyl)imidazolidine-2,4-dione]
0.0021 to 0.02	COc1cccc(Cn2ccn(-c3ccc(-c4cn[nH]c4)c(C)n3)c2=O)c1 [Example 187, 1-(3-methoxy-benzyl)-3-(6-methyl-5-(1H-pyrazol-4-yl)pyridin-2-yl)-1H-imidazol-2(3H)-one]
0.0021 to 0.02	COc1cccc(CN2CCN(c3ccc(-c4cn[nH]c4)cn3)C2=O)c1 [Example 446, 1-(5-(1H-pyrazol-4-yl)pyridin-2-yl)-3-(3-methoxybenzyl)imidazolidin-2-one]
< 0.002	COc1nc(N2CCN(Cc3cc(F)cc(F)c3)C2=O)ccc1-c1cn[nH]c1 [Example 247, 1-(3,5-difluorobenzyl)-3-(6-methoxy-5-(1H-pyrazol-4-yl)pyridin-2-yl)imidazolidin-2-one]
< 0.002	COc1nc(-n2ccn(Cc3cccc(F)c3C)c2=O)ccc1-c1cn[nH]c1 [Example 380, 1-(3-fluoro-2-methylbenzyl)-3-(6-methoxy-5-(1H-pyrazol-4-yl)pyridin-2-yl)-1H-imidazol-2(3H)-one]
0.2 to 2	COc1cc(C(C)n2ccn(-c3ccc(-c4cn[nH]c4)cc3)c2=O)ccc1F (single isomer, unassigned) [Example 392, 1-(4-(1H-pyrazol-4-yl)phenyl)-3-(1-(4-fluoro-3-methoxyphenyl)ethyl)-1H-imidazol-2(3H)-one]
0.0021 to 0.02	COc1cccc(C(C)n2ccn(-c3ccc(-c4ccnc5[nH]ccc45)cc3)c2=O)c1 (single isomer, unassigned) [Example 326, 1-(4-(1H-Pyrrolo[2,3-b]pyridin-4-yl)phenyl)-3-(1-(3-methoxyphenyl)ethyl)-1H-imidazol-2(3H)-one]
0.0201 to 0.2	Cc1nc(N2CCN(C(C)c3cccc(OCC4CC4)c3)C2=O)ccc1-c1cn[nH]c1 (single isomer, unassigned) [Example 204, 1-(1-(3-(cyclopropyl-methoxy)-phenyl)-ethyl)-3-(6-methyl-5-(1H-pyrazol-4-yl)pyridin-2-yl)-imidazolidin-2-one]
0.0201 to 0.2	O=C1N(Cc2cccc(Cl)c2)CCN1c1ccc(-c2cn[nH]c2)cn1 [Example 237, 1-(5-(1H-pyrazol-4-yl)pyridin-2-yl)-3-(3-chlorobenzyl)imidazolidin-2-one]
0.0201 to 0.2	COc1cc(N2C(=O)CN(Cc3cccc(F)c3)C2=O)ccc1-c1cn[nH]c1 [Example 90, 1-(3-fluorobenzyl)-3-(3-methoxy-4-(1H-pyrazol-4-yl)phenyl)imidazolidine-2,4-dione]
0.0021 to 0.02	CCOc1cccc(C(C)n2ccn(-c3ccc(-c4cn[nH]c4)cn3)c2=O)c1 (single isomer, unassigned) [Example 370, 1-(5-(1H-pyrazol-4-yl)pyridin-2-yl)-3-(1-(3-ethoxyphenyl)ethyl)-1H-imidazol-2(3H)-one]
0.2 to 2	CCc1cc(N2CCN(CCc3cccc(OC)c3)C2=O)ccc1-c1cn[nH]c1 [Example 27, 1-(3-Ethyl-4-(1H-pyrazol-4-yl)phenyl)-3-(3-methoxyphenethyl)imidazolidin-2-one, TFA]
0.0201 to 0.2	COc1cc(N2CC(=O)N(CCc3ccccc3)C2=O)ccc1-c1cn[nH]c1 [Example 103, 1-(3-methoxy-4-(1H-pyrazol-4-yl)phenyl)-3-phenethylimidazolidine-2,4-dione]
< 0.002	COc1cccc(CN2CC(CO)N(c3ccc(-c4cn[nH]c4)cc3)C2=O)c1 (single isomer, unassigned) [Example 127, 3-(4-(1H-Pyrazol-4-yl)phenyl)-4-(hydroxymethyl)-1-(3-methoxybenzyl)imidazolidin-2-one]
< 0.002	COc1cc(F)cc(C(C)N2CCN(c3ccc(-c4cn[nH]c4)c(OC)n3)C2=O)c1 (single isomer, unassigned) [Example 228, 1-(1-(3-fluoro-5-methoxyphenyl)ethyl)-3-(6-methoxy-5-(1H-pyrazol-4-yl)pyridin-2-yl)imidazolidin-2-one]
0.0201 to 0.2	COc1cccc(CN2CCN(c3ccc(-c4ccnc(N)n4)cc3)C2=O)c1 [Example 63, 1-(4-(2-Aminopyrimidin-4-yl)phenyl)-3-(3-methoxybenzyl)imidazolidin-2-one]
0.0021 to 0.02	CCOc1cccc(C(C)n2ccn(-c3ccc(-c4cn[nH]c4)cc3)c2=O)c1 (single isomer, unassigned) [Example 369, 1-(4-(1H-pyrazol-4-yl)phenyl)-3-(1-(3-ethoxyphenyl)ethyl)-1H-imidazol-2(3H)-one]
0.2 to 2	CCc1cc(-n2ccn(C(CO)c3cccc(OC)c3)c2=O)ccc1-c1cn[nH]c1 (single isomer, unassigned) [Example 358, 1-(3-ethyl-4-(1H-pyrazol-4-yl)phenyl)-3-(2-hydroxy-1-(3-methoxyphenyl)ethyl)-1H-imidazol-2(3H)-one]

tested on: neointimal formation in rats; assay: not given; details: cited from earlier work

Structure (SMILES)	neointimal formation
C[C@@H](N)[C@H]1CC[C@H](C(=O)Nc2ccncc2)CC1 [Example Y-27632]	inhibited neointimal formation

tested on: Dahl salt-sensitive rats; assay: not given; details: rat, in vivo; cited from earlier work

Structure (SMILES)	ventricular hypertrophy, fibrosis and function
C[C@@H](N)[C@H]1CC[C@H](C(=O)Nc2ccncc2)CC1 [Example Y-27632]	improve ventricular hypertrophy, fibrosis and function

tested on: IL-1 beta-induced coronary stenosis; assay: not given; details: long term treatment; cited from earlier work

Structure (SMILES)	coronary constrictive remodeling	coronary stenosis
O=S(=O)(c1cccc2cnccc12)N1CCCNCC1 [fasudil]	promote a regression of coronary constrictive remodeling	progressively reduce coronary stenosis

tested on: rat stroke model; assay: not given; details: in vivo; cited from earlier work

Structure (SMILES)	infarct size and neurologic deficit
O=S(=O)(c1cccc2cnccc12)N1CCCNCC1 [fasudil]	reduce both the infarct size and neurologic deficit
